# Assay results reported in PMC10574185, “Encapsulation and Biological Activity of Hesperetin Derivatives with HP-β-CD” (Molecules, 2023).
# Like-named read-outs stand apart in the source and are kept apart here.
# How the values were obtained:
# [1] = Phase solubility studies with HP-β-CD; format: physicochemical; details: for solubility at 60 min: thermodynamic from solid
# Protocol: The purpose of this part of the study was to determine the solubility of compounds of hesperetin and its Schiff bases (HHSB, HIN, and HTSC) in aqueous solution at different pHs and temperatures, and the effect of their inclusion in modified HP-β-CD on the aqueous solubility of these compounds at different pH values.
# The effect of the presence of HP-β-CD at different temperatures (25, 37, and 60 °C) was determined by developing phase solubility diagrams.
# In accordance with the methodology described in Section 3.4, excess amounts of each tested substance were added to aqueous solution with increasing concentration of HP-β-CD up to 16 mM, respectively, in 2 mL of 100 mM sodium acetate buffer (pH 3.6), 100 mM sodium phosphate buffer (pH 6.5) or 100 mM sodium borate buffer (pH 8.5).
# Phase solubility studies were conducted according to [64] with some modifications. Excess amounts of each tested substance were added to aqueous solution with increasing concentration of HP-β-CD up to 16 mM, in 2 mL of 100 mM sodium acetate buffer (pH 3.6), 100 mM sodium phosphate buffer (pH 6.5), or 100 mM sodium borate buffer (pH 8.5), respectively. The samples were maintained in an ultrasonic bath at various temperatures (25, 37, and 60 °C) for 60 min to reach equilibrium. The aqueous solutions were then filtered through 0.45 µm acetate cellulose (CA) membrane filter and diluted. The tested compound concentration on each clear filtrate was spectrophotometrically determined by measuring at their wavelength maximum.
# The complexation constant (Kc) between studied molecules and HP-β-CD was determined by using Equation (1):(1) Kc=slope/S0 (1−slope) where S0 means the water solubility of the studied substance, and “slope” means the slope of the phase solubility diagram.
# Complexation efficiency was calculated from the slope of the phase solubility diagram using Equation (2):(2) CE=S0×Kc=slope/1−slope
# The CE was also applied to evaluate the molar ratio in solution of tested systems using Equation (3):(3) Compound:HP−β−CD=1:(1+1/CE)
# [2] = DPPH assay (antioxidant activity); details: concentration 0.1 mg/mL, mean ± SD
# Protocol: (§1) To evaluate the antioxidant ability of the tested systems, antioxidant analysis was performed. Antioxidants can scavenge hydroxyl radicals in two ways: by reacting directly with hydroxyl radicals (DPPH^•, ABTS^•+) or indirectly inhibiting the formation of hydroxyl radicals by chelating metal ions involved in the production of hydroxyl radicals. The antioxidant activity of the systems studied was investigated by using DPPH^• scavenging, ABTS^•+ scavenging ability, and Fe^2+-chelating ability. In this study, the antioxidant activity of pure hesperetin and its Schiff bases (HHSB, HIN, and HTSC) and HP-β-CD complexes were compared, and the positive control was Trolox.
# The detailed methodology of DPPH assay was described in the previous paper by Sykuła et al..
# [3] = ABTS^•+ radical cation decolorization assay; details: concentration 0.1 mg/mL, mean ± SD
# Protocol: as §1
# Antioxidant activity using ABTS^•+ cation radical scavenging was determined according to a modified method. ABTS solution (2.5 mM) was mixed with 1.0 mM potassium persulfate solution and left at room temperature in the dark for 12-24 h. After this time, the absorbance of the finished ABTS^•+ solution was corrected with ethanol to 0.70 ± 0.02 at 745 nm. A total of 100 µL of the sample was reacted for 5 min with 2 mL of ABTS^•+ solution (A745 nm = 0.70 ± 0.02). The absorbance value of the reaction mixture was measured at 745 nm. […] Scavenging activity (%) = [1 − (Asample − Ablank)/Acontrol] × 100%(4) where Acontrol is the absorbance value of the control (ABTS^•+ solution with water), Ablank is the absorbance value of samples mixed with anhydrous ethanol, and Asample is the absorbance value of the added test sample to ABTS^•+ solution at 745 nm, respectively.
# [4] = test system: Escherichia coli ATCC 35218; assay: Minimal inhibition concentration (dilution + diffusion-well); format: cell-based; details: ATCC35218, 37 °C, 18 h
# Procedure, shortened: (§2)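 Agar diffusion-well format on Mueller–Hinton agar, 8 mm wells loaded with two-fold compound dilutions prepared from 500 to 62.5 µM in 5% DMSO. Plates incubated 18 h at 37 °C; MIC taken as first concentration showing growth inhibition.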
# [5] = test system: Escherichia coli ATCC 11303; assay: as above; format: cell-based; details: ATCC11303, 37 °C, 18 h
# Procedure, shortened: as §2
# [6] = test system: Staphylococcus aureus; parameters: method as in PMID 36009336; details: cited from earlier work
# [7] = test system: Pseudomonas aeruginosa; parameters: method as in PMID 36009336; details: cited from earlier work
# [8] = pH 6.5; cited from earlier work
# [9] = aqueous buffer, 25 °C, pH 3.6 sodium acetate buffer, without cyclodextrin, read-out: solubility without HP-β-CD (value in brackets) (converted)
# [10] = aqueous buffer, 25 °C, pH 6.5 sodium phosphate buffer, without cyclodextrin, read-out: solubility without HP-β-CD (value in brackets) (converted)
# [11] = aqueous buffer, 25 °C, pH 8.5 sodium borate buffer, without cyclodextrin, read-out: solubility without HP-β-CD (value in brackets) (converted)
# [12] = aqueous buffer, 37 °C, pH 3.6 sodium acetate buffer, without cyclodextrin, read-out: solubility without HP-β-CD (value in brackets) (converted)
# [13] = aqueous buffer, 37 °C, pH 6.5 sodium phosphate buffer, without cyclodextrin, read-out: solubility without HP-β-CD (value in brackets) (converted)
# [14] = aqueous buffer, 37 °C, pH 8.5 sodium borate buffer, without cyclodextrin, read-out: solubility without HP-β-CD (value in brackets) (converted)
# [15] = aqueous buffer, 60 °C, pH 3.6 sodium acetate buffer, without cyclodextrin, read-out: solubility without HP-β-CD (value in brackets) (converted)
# [16] = aqueous buffer, 60 °C, pH 6.5 sodium phosphate buffer, without cyclodextrin, read-out: solubility without HP-β-CD (value in brackets) (converted)
# [17] = aqueous buffer, 60 °C, pH 8.5 sodium borate buffer, without cyclodextrin, read-out: solubility without HP-β-CD (value in brackets) (converted)
# [18] = 25 °C, pH 3.6 sodium acetate buffer, with HP-β-CD, read-out: S0 (solubility with HP-β-CD)
# [19] = 25 °C, pH 6.5 sodium phosphate buffer, with HP-β-CD, read-out: S0 (solubility with HP-β-CD)
# [20] = 25 °C, pH 8.5 sodium borate buffer, with HP-β-CD, read-out: S0 (solubility with HP-β-CD)
# [21] = 37 °C, pH 3.6 sodium acetate buffer, with HP-β-CD, read-out: S0 (solubility with HP-β-CD)
# [22] = 37 °C, pH 6.5 sodium phosphate buffer, with HP-β-CD, read-out: S0 (solubility with HP-β-CD)
# [23] = 37 °C, pH 8.5 sodium borate buffer, with HP-β-CD, read-out: S0 (solubility with HP-β-CD)
# [24] = 60 °C, pH 3.6 sodium acetate buffer, with HP-β-CD, read-out: S0 (solubility with HP-β-CD)
# [25] = 60 °C, pH 6.5 sodium phosphate buffer, with HP-β-CD, read-out: S0 (solubility with HP-β-CD)
# [26] = 60 °C, pH 8.5 sodium borate buffer, with HP-β-CD, read-out: S0 (solubility with HP-β-CD)
smiles,measurement,setting,value
COc1ccc(C2C/C(=N\NC(=O)c3ccccc3)c3c(O)cc(O)cc3O2)cc1O (racemic) [HHSB],CE complexation efficiency,"[1]; 25 °C, pH 3.6, with HP-β-CD",1.4%
same,Kc complexation constant,"[1]; 25 °C, pH 3.6, with HP-β-CD",341 ± 79 M⁻¹
same,CE complexation efficiency,"[1]; 25 °C, pH 6.5, with HP-β-CD",0.7%
same,Kc complexation constant,"[1]; 25 °C, pH 6.5, with HP-β-CD",150 ± 21 M⁻¹
same,CE complexation efficiency,"[1]; 25 °C, pH 8.5, with HP-β-CD",0.7%
same,Kc complexation constant,"[1]; 25 °C, pH 8.5, with HP-β-CD",150 ± 19 M⁻¹
same,CE complexation efficiency,"[1]; 37 °C, pH 3.6, with HP-β-CD",1.1%
same,Kc complexation constant,"[1]; 37 °C, pH 3.6, with HP-β-CD",226 ± 92 M⁻¹
same,CE complexation efficiency,"[1]; 37 °C, pH 6.5, with HP-β-CD",2.5%
same,Kc complexation constant,"[1]; 37 °C, pH 6.5, with HP-β-CD",618 ± 36 M⁻¹
same,CE complexation efficiency,"[1]; 37 °C, pH 8.5, with HP-β-CD",0.15%
same,Kc complexation constant,"[1]; 37 °C, pH 8.5, with HP-β-CD",100 ± 34 M⁻¹
same,CE complexation efficiency,"[1]; 60 °C, pH 3.6, with HP-β-CD",0.9%
same,Kc complexation constant,"[1]; 60 °C, pH 3.6, with HP-β-CD",250 ± 20 M⁻¹
same,CE complexation efficiency,"[1]; 60 °C, pH 6.5, with HP-β-CD",1.8%
same,Kc complexation constant,"[1]; 60 °C, pH 6.5, with HP-β-CD",155 ± 4 M⁻¹
same,increase of solubility with HP-β-CD,"[1]; 60 °C, pH 8.5",five-fold
same,CE complexation efficiency,"[1]; 60 °C, pH 8.5, with HP-β-CD",7%
same,Kc complexation constant,"[1]; 60 °C, pH 8.5, with HP-β-CD",728 ± 82 M⁻¹
same,solubility at 60 min,[1]; [9],18 µM
same,solubility at 60 min,[1]; [10],25 µM
same,solubility at 60 min,[1]; [11],25 µM
same,solubility at 60 min,[1]; [12],20 µM
same,solubility at 60 min,[1]; [13],5 µM
same,solubility at 60 min,[1]; [14],5 µM
same,solubility at 60 min,[1]; [15],12 µM
same,solubility at 60 min,[1]; [16],27 µM
same,solubility at 60 min,[1]; [17],18 µM
same,solubility at 60 min,[1]; [18],41 ± 21 µM
same,solubility at 60 min,[1]; [19],45 ± 5 µM
same,solubility at 60 min,[1]; [20],45 ± 5 µM
same,solubility at 60 min,[1]; [21],50 ± 10 µM
same,solubility at 60 min,[1]; [22],41 ± 23 µM
same,solubility at 60 min,[1]; [23],15 ± 6.1 µM
same,solubility at 60 min,[1]; [24],36 ± 14 µM
same,solubility at 60 min,[1]; [25],115 ± 53 µM
same,solubility at 60 min,[1]; [26],96 ± 42 µM
same,DPPH antioxidant activity,[2],44.29 ± 4.5%
same,ABTS^•+ antioxidant activity,[3],98.11 ± 5.0%
same,MIC,[4],2.5 µM
"COc1ccc(C2CC(=O)c3c(O)cc(O)cc3O2)cc1O (centres unmarked) [Hesperetin, 3′,5,7-Trihydroxy-4′-methoxyflavanone]",CE complexation efficiency,"[1]; 25 °C, pH 3.6, with HP-β-CD",34.7%
same,Kc complexation constant,"[1]; 25 °C, pH 3.6, with HP-β-CD",3221 ± 358 M⁻¹
same,increase of solubility with HP-β-CD,"[1]; 25 °C, pH 6.5, HP-β-CD at 16 mM",five-fold
same,CE complexation efficiency,"[1]; 25 °C, pH 6.5, with HP-β-CD",248%
same,Kc complexation constant,"[1]; 25 °C, pH 6.5, with HP-β-CD",11933 ± 1949 M⁻¹
same,CE complexation efficiency,"[1]; 25 °C, pH 8.5, with HP-β-CD",80.4%
same,Kc complexation constant,"[1]; 25 °C, pH 8.5, with HP-β-CD",2513 ± 143 M⁻¹
same,CE complexation efficiency,"[1]; 37 °C, pH 3.6, with HP-β-CD",44.4%
same,Kc complexation constant,"[1]; 37 °C, pH 3.6, with HP-β-CD",3171 ± 887 M⁻¹
same,CE complexation efficiency,"[1]; 37 °C, pH 6.5, with HP-β-CD",25%
same,Kc complexation constant,"[1]; 37 °C, pH 6.5, with HP-β-CD",2280 ± 152 M⁻¹
same,CE complexation efficiency,"[1]; 37 °C, pH 8.5, with HP-β-CD",19%
same,Kc complexation constant,"[1]; 37 °C, pH 8.5, with HP-β-CD",1703 ± 163 M⁻¹
same,CE complexation efficiency,"[1]; 60 °C, pH 3.6, with HP-β-CD",34%
same,Kc complexation constant,"[1]; 60 °C, pH 3.6, with HP-β-CD",2566 ± 144 M⁻¹
same,CE complexation efficiency,"[1]; 60 °C, pH 6.5, with HP-β-CD",11%
same,Kc complexation constant,"[1]; 60 °C, pH 6.5, with HP-β-CD",1179 ± 888 M⁻¹
same,CE complexation efficiency,"[1]; 60 °C, pH 8.5, with HP-β-CD",37%
same,Kc complexation constant,"[1]; 60 °C, pH 8.5, with HP-β-CD",2365 ± 221 M⁻¹
same,solubility at 60 min,[1]; [9],50 µM
same,solubility at 60 min,[1]; [10],49 µM
same,solubility at 60 min,[1]; [11],280 µM
same,solubility at 60 min,[1]; [12],80 µM
same,solubility at 60 min,[1]; [13],85 µM
same,solubility at 60 min,[1]; [14],98 µM
same,solubility at 60 min,[1]; [15],95 µM
same,solubility at 60 min,[1]; [16],82 µM
same,solubility at 60 min,[1]; [17],120 µM
same,solubility at 60 min,[1]; [18],108 ± 4 µM
same,solubility at 60 min,[1]; [19],208 ± 110 µM
same,solubility at 60 min,[1]; [20],320 ± 32 µM
same,solubility at 60 min,[1]; [21],140 ± 40 µM
same,solubility at 60 min,[1]; [22],110 ± 30 µM
same,solubility at 60 min,[1]; [23],110 ± 10 µM
same,solubility at 60 min,[1]; [24],130 ± 20 µM
same,solubility at 60 min,[1]; [25],96 ± 9 µM
same,solubility at 60 min,[1]; [26],150 ± 27 µM
same,DPPH antioxidant activity,[2],38.08 ± 2.7%
same,ABTS^•+ antioxidant activity,[3],77.42 ± 2.2%
same,MIC,[5],2.5 µM
same,MIC,[6],125 µg/mL
same,MIC,[7],500 µg/mL
same,increase of hesperetin solubility with HP-β-CD,[8],164 times
